Reference: patent US5336690A, “Aminosulfonyl carbamates composition and method of use to treat hypercholesterolemia and atherosclerosis” (Warner-Lambert Company, priority 1993, dated 1994)
Counter-ions that a name gives are not always drawn. Like-named read-outs stand apart in the source and are kept apart here.

How the values were obtained:
[1] = target: T1, acyl-CoA: cholesterol acyltransferase (ACAT) (Oryctolagus cuniculus, UniProt G1SFD9); assay: in vitro ACAT inhibition (IAI): formation of radiolabeled cholesterol oleate from radiolabeled oleic acid in rabbit intestinal microsomes; format: biochemical
T1 construct: tissue preparation containing rabbit intestinal microsomes; from tissue; host or cells: rabbit intestinal microsomes
T1 sequence (G1SFD9 1-524): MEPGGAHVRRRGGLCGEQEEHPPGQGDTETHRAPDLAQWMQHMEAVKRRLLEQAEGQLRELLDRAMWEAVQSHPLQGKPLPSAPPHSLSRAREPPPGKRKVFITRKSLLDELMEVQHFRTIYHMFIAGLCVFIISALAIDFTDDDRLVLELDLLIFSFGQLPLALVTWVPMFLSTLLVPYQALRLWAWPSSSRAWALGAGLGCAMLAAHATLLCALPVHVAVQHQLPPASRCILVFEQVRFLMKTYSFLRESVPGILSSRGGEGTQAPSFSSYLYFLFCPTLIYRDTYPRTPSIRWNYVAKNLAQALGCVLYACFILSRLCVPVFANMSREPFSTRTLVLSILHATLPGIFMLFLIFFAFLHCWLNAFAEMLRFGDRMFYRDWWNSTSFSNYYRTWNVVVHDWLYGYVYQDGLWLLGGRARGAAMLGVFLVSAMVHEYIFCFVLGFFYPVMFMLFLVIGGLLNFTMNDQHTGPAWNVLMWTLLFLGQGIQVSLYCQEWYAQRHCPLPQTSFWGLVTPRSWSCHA
Description: The ability of representative compounds of the present invention to inhibit ACAT was measured using an in vitro test more fully described in F. J. Field and R. G. Salone, Biochemica et Biophysica 712:557-570 (1982). The test assesses the ability of a test compound to inhibit the acylation of cholesterol by oleic acid by measuring the amount of radiolabeled cholesterol oleate formed from radiolabeled oleic acid in a tissue preparation containing rabbit intestinal microsomes.

[2] = APCC in vivo screen: blood cholesterol in male Sprague-Dawley rats on high fat, high cholesterol diet with 0.5% cholic acid; conditions: high fat high cholesterol diet overnight; for % Change (mg/dl) (cholesterol) / change in vivo at 30 mg/kg: single dose 30 mg/kg; for % Change (mg/dl) (cholesterol): 30 mg/kg
From the text: In one in vivo screen designated APCC, male Sprague-Dawley rats (200 to 225 g) were randomly divided into treatment groups and dosed at 4 PM with either vehicle (CMC/Tween) or suspensions of compounds in vehicle. The normal chow diet was then replaced with a high fat, high cholesterol diet with 0.5% cholic acid. The rats consumed this diet ad libitum during the night and were sacrificed at 8 AM to obtain blood samples for cholesterol analysis using standard procedures. Statistical differences between mean cholesterol values for the same vehicle were determined using analysis of variance followed by Fisher's least significant test. The compounds were dosed at 30 mg/kg unless otherwise noted.

[3] = rabbit intestinal microsomes, read-out: IAI IC50
[4] = Rattus norvegicus, read-out: % Change (mg/dl) (cholesterol)
[5] = rat, read-out: % Change (mg/dl) (cholesterol)

COC(=O)NS(=O)(=O)Nc1c(C(C)C)cccc1C(C)C [Example 1, Methyl [[2,6-bis(1-methylethyl)phenylamino]sulfonyl]carbamate]
IC50 [1, 3]: > 100 µM

CCCCN(CCCC)S(=O)(=O)NC(=O)Oc1c(C(C)C)cccc1C(C)C [Example 11, 2,6-Bis(1-methylethyl)phenyl[(dibutylamino)sulfonyl]carbamate]
IC50 [1, 3]: 1.9 µM
% Change (mg/dl) (cholesterol) ([2]; rat): -57 % Change (mg/dl)

Cc1cc(C(C)(C)C)c(OC(=O)NS(=O)(=O)Nc2ccccc2)c(C(C)(C)C)c1 [Example 21, 2,6-Bis(1,1-dimethylethyl)-4-methylphenyl[(phenylamino)sulfonyl]carbamate]
change in vivo at 50 mg/kg ([2]; Rattus norvegicus, single dose 50 mg/kg (*), read-out: % Change (mg/dl) (cholesterol)): -33%

CCCCN(CCCC)S(=O)(=O)NC(=O)Oc1c(C(C)(C)C)cc(C)cc1C(C)(C)C [Example 22, 2,6-Bis(1,1-dimethylethyl)-4-methylphenyl[(dibutylamino)sulfonyl]carbamate]
change in vivo at 30 mg/kg [2, 4]: -4%

CCCCCN(CCCCC)S(=O)(=O)NC(=O)Oc1c(C(C)(C)C)cc(C)cc1C(C)(C)C [Example 23, 2,6-Bis(1,1-dimethylethyl)-4-methylphenyl[(dipentylamino)sulfonyl]carbamat]
change in vivo at 30 mg/kg [2, 4]: -42%

Cc1cc(C(C)(C)C)c(OC(=O)NS(=O)(=O)N(C(C)C)C(C)C)c(C(C)(C)C)c1 [Example 24, 2,6-Bis(1,1-dimethylethyl)-4-methylphenyl[[bis(1-methylethyl)amino]sulfonyl]carbamate]
change in vivo at 30 mg/kg [2, 4]: -19%

CCCCCCN(CCCCCC)S(=O)(=O)NC(=O)Oc1c(C(C)(C)C)cc(C)cc1C(C)(C)C [Example 25, 2,6-Bis(1,1-dimethylethyl)-4-methylphenyl[(dihexylamino)sulfonyl]carbamate]
change in vivo at 30 mg/kg [2, 4]: -40%

CCCCCCNS(=O)(=O)NC(=O)Oc1c(C(C)(C)C)cc(C)cc1C(C)(C)C [Example 26, 2,6-Bis(1,1-dimethylethyl)-4-methylphenyl[(hexylamino)sulfonyl]carbamate]
change in vivo at 30 mg/kg [2, 4]: -52%

Cc1cc(C(C)(C)C)c(OC(=O)NS(=O)(=O)N(C)CCc2ccccc2)c(C(C)(C)C)c1 [Example 27, 2,6-Bis(1,1-dimethylethyl)-4-methylphenyl[[methyl(2-phenylethyl)amino]sulfonyl]carbamate]
IC50 [1, 3]: 18.9 µM
change in vivo at 30 mg/kg [2, 4]: -29%

Cc1cc(C(C)(C)C)c(OC(=O)NS(=O)(=O)N(CCCN(C)C)CCCN(C)C)c(C(C)(C)C)c1 [Example 28, 2,6-Bis(1,1-dimethylethyl)-4-methylphenyl[[[bis-3-(di-methylamino)propyl]amino]sulfonyl]carbamate]
change in vivo at 30 mg/kg [2, 5]: -13%

CCCCCCCCN(C)S(=O)(=O)NC(=O)Oc1c(C(C)(C)C)cc(C)cc1C(C)(C)C [Example 29, 2,6-Bis(1,1-dimethylethyl)-4-methylphenyl[(methyloctylamino)sulfonyl]carbamate]
change in vivo at 30 mg/kg [2, 4]: -55%

Cc1cc(C(C)(C)C)c(OC(=O)NS(=O)(=O)N(CC2CCCO2)CC2CCCO2)c(C(C)(C)C)c1 (centres unmarked) [Example 30, 2,6-Bis(1,1-dimethylethyl)4-methylphenyl[[bis[(tetrahydro-2-furanyl)methyl]amino]sulfonyl]carbamate]
change in vivo at 30 mg/kg [2, 4]: 2%

CCCCCCCCN(CCCCCCCC)S(=O)(=O)NC(=O)Oc1c(C(C)(C)C)cc(C)cc1C(C)(C)C [Example 31, 2,6-Bis(1,1-dimethylethyl)-4-methylphenyl[(dioctylamino)sulfonyl]carbamate]
change in vivo at 30 mg/kg [2, 4]: 0%

Cc1cc(C(C)(C)C)c(OC(=O)NS(=O)(=O)N(C)CCc2ccccn2)c(C(C)(C)C)c1 [Example 32, 2,6-Bis(1,1-dimethylethyl)-4-methylphenyl[[[methyl 2-(2-pyridinyl)ethyl]amino]sulfonyl]carbamate, hydrochloride salt]
IC50 [1, 3]: 31 µM
% Change (mg/dl) (cholesterol) ([2]; rat, hydrochloride salt): -10 % Change (mg/dl)

Cc1cc(C(C)(C)C)c(OC(=O)NS(=O)(=O)N(C)CCc2ccccn2)c(C(C)(C)C)c1 [Example 33, 2,6-Bis(1,1-dimethylethyl)-4-methylphenyl[[[methyl 2-(2-pyridinyl)ethyl]amino]sulfonyl]carbamate, sodium salt]
% Change (mg/dl) (cholesterol) ([2]; rat, sodium salt): -22 % Change (mg/dl)

CCCCCCCCCCN(CCCCCCCCCC)S(=O)(=O)NC(=O)Oc1c(C(C)(C)C)cc(C)cc1C(C)(C)C [Example 34]
change in vivo at 30 mg/kg [2, 4]: -4%

CC(C)c1cccc(C(C)C)c1OC(=O)NS(=O)(=O)N(C(C)C)C(C)C [Example 35, 2,6-Bis(1-methylethyl)phenyl[[bis(1-methylethyl)amino]sulfonyl]carbamate]
change in vivo at 30 mg/kg [2, 4]: -76%

CC(C)c1cccc(C(C)C)c1OC(=O)NS(=O)(=O)N(Cc1ccccc1)C(C)C [Example 36]
change in vivo at 30 mg/kg [2, 4]: -70%

CCCCCCNS(=O)(=O)NC(=O)Oc1c(C(C)C)cccc1C(C)C [Example 37, 2,6-Bis(1-methylethyl)phenyl[(hexylamino)sulfonyl]carbamate]
change in vivo at 30 mg/kg [2, 4]: -58%

CCCCCCCCN(CCCCCCCC)S(=O)(=O)NC(=O)Oc1c(C(C)C)cccc1C(C)C [Example 38, 2,6-Bis(1-methylethyl)phenyl[(dioctylamino)sulfonyl]carbamate]
change in vivo at 30 mg/kg [2, 4]: -70%

CC(C)c1cccc(C(C)C)c1OC(=O)NS(=O)(=O)N(C(C)C)C1CCCCC1 [Example 39, 2,6-Bis(1-methylethyl)phenyl[[cyclohexyl(1-methylethyl)amino]sulfonyl]carbamate]
change in vivo at 30 mg/kg [2, 4]: -60%

CCCCCCCCN(C)S(=O)(=O)NC(=O)Oc1c(C(C)C)cccc1C(C)C [Example 40, 2,6-Bis(1-methylethyl)phenyl[(methyloctylamino)sulfonyl]carbamate]
change in vivo at 30 mg/kg [2, 4]: -60%

CCCCCCN(CCCCCC)S(=O)(=O)NC(=O)Oc1c(C(C)C)cccc1C(C)C [Example 41, 2,6-Bis(1-methylethyl)phenyl[(dihexylamino)sulfonyl]carbamate]
change in vivo at 30 mg/kg [2, 4]: -62%

CCCCCN(CCCCC)S(=O)(=O)NC(=O)Oc1c(C(C)C)cccc1C(C)C [Example 42, 2,6-Bis(1-methylethyl)phenyl[(dipentylamino)sulfonyl]carbamate]
change in vivo at 30 mg/kg [2, 4]: -74%

CCCCCCCCCCCCOC(=O)NS(=O)(=O)Nc1c(OC)cc(OC)cc1OC [Example 43, Dodecyl[[(2,4,6-trimethoxyphenyl)amino]sulfonyl]carbamate]
change in vivo at 30 mg/kg [2, 5]: -8%

CC(C)c1cccc(C(C)C)c1OC(=O)NS(=O)(=O)N1CCOCC1 [Example 50, 2,6-Bis(1-methylethyl)-phenyl ester(4-morpholinylsulfonyl)-carbamic acid]
IC50 [1, 3]: > 100 µM
change in vivo at 30 mg/kg [2, 4]: -14%

CC(C)c1cccc(C(C)C)c1OC(=O)NS(=O)(=O)N1CCCCC1 [Example 51, 2,6-Bis(1-methylethyl)-phenyl ester(1-piperidinylsulfonyl)-carbamic acid]
IC50 [1, 3]: > 100 µM
change in vivo at 30 mg/kg [2, 4]: -11%

CC(C)c1cccc(C(C)C)c1OC(=O)NS(=O)(=O)N1CCCC1 [Example 52, 2,6-Bis(1-methylethyl)-phenyl ester(1-pyrrolidinylsulfonyl)-carbamic acid]
change in vivo at 30 mg/kg [2, 4]: -53%

CC(C)c1cccc(C(C)C)c1OC(=O)NS(=O)(=O)N1CCN(C)CC1 [Example 53, 2,6-Bis(1-methylethyl)-phenyl ester, monohydrochloride[(4-methyl-1-piperazinyl)-sulfonyl] carbamic acid]
IC50 [1]: > 100 µM
change in vivo at 30 mg/kg [2, 5]: -21%

CC(C)c1cccc(C(C)C)c1OC(=O)NS(=O)(=O)N1CCc2ccccc21 [Example 54]
change in vivo at 30 mg/kg [2, 4]: -77%

CCCCN(CCCC)S(=O)(=O)NC(=O)Oc1c(C(C)C)cccc1C(C)C [Example 57, 2,6-bis(1-methylethyl)phenyl[(dibutylamino)sulfonyl]carbamate monosodium salt]
% Change (mg/dl) (cholesterol) ([2]; rat, monosodium salt): -66 % Change (mg/dl)

CN(C(=O)Oc1c(C(C)(C)C)cccc1C(C)(C)C)S(=O)(=O)NC(c1ccccc1)c1ccccc1 [Example 58, 2,6-bis(1,1-dimethylethyl)phenyl[[(diphenylmethyl)amino]sulfonyl]methyl carbamate]
change in vivo at 30 mg/kg [2, 4]: 4%
